# Data taken from patent US20210177795A1 (priority 2017, published 2021).
# “Also recorded” adds a separate entry of the source.
# What was measured:
# [1] = system: Udorn influenza virus (A/Udorn/307/72 (H3N2)); set-up: species or system C57BL/6 mice; details: mouse, in vivo
# [2] = system: cytokines/chemokines; set-up: species or system C57BL/6 mice; details: mouse, in vivo
# [3] = system: IL-6; set-up: species or system C57BL/6 mice; details: mouse, in vivo
# [4] = system: MCP-1; set-up: species or system C57BL/6 mice; details: mouse, in vivo
# [5] = system: KC; set-up: species or system C57BL/6 mice; details: mouse, in vivo
# [6] = system: RANTES; set-up: species or system C57BL/6 mice; details: mouse, in vivo
# [7] = system: IL-10; set-up: species or system C57BL/6 mice; details: mouse, in vivo
# [8] = mouse, in vivo
compound,measurement,setting,value
"CCC(=O)OCC(CSCC(N)C(=O)NC(CO)C(=O)NCCOCC(=O)NCC(N)=O)OC(=O)CC (stereo not drawn) [INNA-006, PEG-S-Pam2Cys]",progression of influenza virus to the lungs,[1],significantly inhibited; also recorded: partial inhibition
same,"cytokine/chemokine levels in nasal turbinates, lungs and sera, 3 repeat doses vs single dose",[2],marked decrease
same,"cytokine/chemokine profiles in lungs, trachea and sera, single vs triple dose regimes",[2],no discernible differences
same,"proinflammatory cytokines and chemokines including IL-6, KC & MCP-1 in nasal turbinates vs saline",[2],increases were detected in a dose-dependent manner
same,"IL-6 in nasal turbinates, fold lower with 3 doses vs single dose",[3],approximately 25 fold
same,fold increase in IL-6 levels in nasal turbinates vs saline,[3],98 fold
same,MCP-1 level in nasal turbinates,[4],~66 pg/mL
same,fold increase of MCP-1 in nasal turbinates vs saline,[4],7 fold
same,KC in the lungs compared to the saline control,[5],no significance
same,KC level in lungs,[5],~14 pg/mL
same,KC level in nasal turbinates,[5],~83 pg/mL
same,KC levels in the lung,[5],~16.3 pg/mL
same,fold increase of KC in nasal turbinates vs saline,[5],2 fold
same,fold increase of KC secretion in lungs compared to INNA-003,[5],2 fold
same,fold increase of KC secretion in lungs compared to saline control,[5],3 fold
same,RANTES level in nasal turbinates,[6],~141 pg/mL
same,RANTES secretion in nasal turbinates compared to INNA-003,[6],increased RANTES secretion
same,fold increase of RANTES in nasal turbinates vs saline,[6],1.9 fold
same,IL-10 level in nasal turbinates,[7],~17 pg/mL
same,fold increase of IL-10 in nasal turbinates vs saline,[7],2 fold
same,greatest weight loss,[8],1.87%±1.33%
PEG-[Arg]4-Ser-Ser-Pam2Cys [INNA-002],antiviral effect across doses,[1],dose-dependent antiviral-effect
same,progression of influenza virus to the lungs,[1],inhibited; also recorded: partial inhibition
"CCCCCCCCCCCCCCCC(=O)OCC(CSC[C@H](N)C(=O)N[C@@H](CO)C(=O)N[C@@H](CO)C(=O)NCCOCCOCCOCCOCCOCCOCCOCCOCCOCCOCCOCCOCCC(=O)NCC(N)=O)OC(=O)CCCCCCCCCCCCCCC (stereo partly drawn) [INNA-003, PEG-S—S-Pam2Cys]",greatest weight loss,[8],1.89%±1.15%
